≈ marks a conversion by molar mass, not a printed value.
Legend:
Assay type in all cases: physicochemical
[1] = Water content / hygroscopicity of crystal modification 1 versus relative humidity
Excerpt: Crystal modification 1 of odevixibat cannot only be obtained from a mixture of water and ethanol, as described above, but also from a slurry of odevixibat in a mixture of water and an organic solvent selected from the group consisting of methanol, 2-propanol, acetone, acetonitrile, 1,4-dioxane, DMF and DMSO. Upon drying of the different mixed solvates obtained under these conditions (crystal modification 2), the same crystalline hydrate of odevixibat is obtained, namely crystal modification 1. Crystal modification 1 contains void volumes that are capable of containing up to about 2 moles of water associated with the crystal per mole of odevixibat, depending on the relative humidity. This form is therefore formally a channel hydrate. At about 30% relative humidity, however, crystal modification 1 contains a substantially stoichiometric amount of about 1.5 moles of water per mole of organic compound and is thus a sesquihydrate. The substantially stoichiometric amount of water is considered advantageous, as the water content of the crystals remains substantially constant even with humidity changes within the normal relative humidity range of about 30% to about 70% RH.
Whereas crystal modification 1 is a sesquihydrate containing about 3.5% (w/w) water at about 30% relative humidity (based on the total crystal weight), it has been observed that the crystal can take up an additional 1.5% (w/w) water when the humidity is increased up to 95% RH. The sorption and desorption of this additional water is fully reversible. The additional water may be adsorbed on the surface or may further fill the channels of the structure. In some embodiments, the term “overhydrated” refers to crystal modification 1 containing from about 1.5 to about 4 moles of water per mole of odevixibat, such as from about 1.5 to about 3.5, or such as from about 1.5 to 3, or such as from about 1.5 to about 2.5, or such as from about 1.5 to about 2 moles of water per mole of odevixibat. In some embodiments, the term “overhydrated” refers to crystal modification 1 containing from about 2 to about 4 moles of water per mole of odevixibat, such as from about 2 to about 3.5, or such as from about 2 to about 3, or such as from about 2 to 2.5 moles of water per mole of odevixibat.

[2] = Particle size distribution of crystalline odevixibat drug substance; conditions: typical value, crystalline material
Excerpt: Crystalline odevixibat was used. Typical values for the particle size distribution of the crystalline material were d10=0.9 μm, d50=4 μm and d90=20 μm, wherein d10, d50 and d90 are defined as the diameters where 10%, 50% and 90%, respectively, of the particle population lies below these values. […]

[3] = Solubility of odevixibat in water; conditions: pH 7, 37° C.
Excerpt: It is desirable that the use of organic solvents in the preparation of the formulation is avoided. In some embodiments, water is used as the solvent for the preparation of the formulation. […] Because of this low solubility in water, aqueous suspensions of odevixibat can contain larger agglomerates of odevixibat, which may lead to an uneven distribution of the active pharmaceutical ingredient on the cores, i.e. the cores may contain different amounts of odevixibat, which in turn impacts dose uniformity. Accordingly, in some embodiments, the aqueous suspension of odevixibat is homogeneous. In some embodiments, a homogeneous aqueous suspension of odevixibat is sprayed onto the cores.

## CCCCC1(CCCC)CN(c2ccccc2)c2cc(SC)c(OCC(=O)N[C@@H](C(=O)N[C@@H](CC)C(=O)O)c3ccc(O)cc3)cc2S(=O)(=O)N1 [crystal modification 1]
[1]; about 30% relative humidity
  water content: about 1.5 moles of water per mole of organic compound
[1]; about 30% relative humidity, based on total crystal weight
  water content of crystal: about 3.5 % (w/w)
[1]; between about 30 and about 70% RH
  hygroscopicity: relatively low hygroscopicity
[1]; humidity increased up to 95% RH, fully reversible
  additional water taken up: 1.5 % (w/w)

## CCCCC1(CCCC)CN(c2ccccc2)c2cc(SC)c(OCC(=O)N[C@@H](C(=O)N[C@@H](CC)C(=O)O)c3ccc(O)cc3)cc2S(=O)(=O)N1 [odevixibat, 1,1-dioxo-3,3-dibutyl-5-phenyl-7-methylthio-8-(N—{(R)-α-[N—((S)-1-carboxypropyl)carbamoyl]-4-hydroxybenzyl}carbamoylmethoxy)-2,3,4,5-tetrahydro-1,2,5-benzothiadiazepine]
[2]
  particle size distribution d10: 0.9 μm
  particle size distribution d50: 4 μm
  particle size distribution d90: 20 μm
[3]
  solubility: ~30 µg/mL (≈ 40.5 µM)

From patent publication US11801226B2, “Pharmaceutical formulation of odevixibat” (Albireo AB, priority 2018, dated 2023)
